Measured values as given in US8557763B2, “Synthetic peptides that enhance tight junction permeability” (Alba Therapeutics Corporation, priority 2007, dated 2013).
Where no end group is shown, it is not given here. [ ]: non-standard residue; d: D form. AllylGly = C=CC[C@H](N)C(=O)O

Key:
CaCo2 monolayers [1] = test: Lucifer Yellow (LY) permeability assay through CaCo2 monolayers; type: cell-based; set-up: key to Enhanced LY permeability: + indicates an enhancement of the permeability of the tight junctions were observed; − indicates no enhancement of permeability was observed; details: for Enhanced LY permeability: CaCo2 monolayers, Lucifer Yellow flux
Excerpt: (§1) Agonists of tight junctions can be identified by their ability to enhance the flux of compounds (e.g. ions, Lucifer Yellow) through a cell monolayer that comprises tight junctions; or by their ability to reduce TEER across a cell monolayer that comprises tight junctions. Treatment of CaCo2 monolayers with peptide FCIGRL (SEQ ID NO: 1) led to a 51-fold enhancement of Lucifer Yellow permeability through CaCo2 monolayers compared to vehicle alone.
(§2) Tight junction agonists can be identified and tested using the following method:
(§3) Determination of TEER and Lucifer Yellow Flux
(§4) Prepare Modified Hank's Balanced Salt Solution (MHBSS) by obtaining 1 L bottle of HBSS removing 10 ml of HBSS and replacing it with 10 ml HEPES buffer pH 7.0. Adjust pH to 7.4±0.1 using concentrated NaOH (10N).
(§5) Remove CaCo-2 cells from incubator, grown on 12-well, 3.0 μM, polycarbonate Transwell® filters (Corning) and record passage#, date cells seeded and age in days.
(§6) Aspirate cell culture medium from both the apical (AP) and basolateral (BL) compartments, replacing with 0.5 ml and 1.5 ml of MHBSS, respectively. Incubate cells at 37° C. for 30 minutes.
(§7) Aspirate solution from the apical compartment of each filter (n=3 per condition) and replace with 0.5 ml of control and test solutions containing Lucifer Yellow and test compound if appropriate.
(§8) Place all plates into incubator set at 37° C. (±0.2), 50 RPM (±5) for a total of 180 minutes.
At t=60, 120 and 180 minutes remove […] from each basolateral compartment and place it in a 96-well plate for Lucifer Yellow analysis, replace with 100 μl of MHBSS.
Make a Lucifer Yellow standard curve with the following dilutions (7500 μM, 3750 μM, 750 μM, 375 μM, 37.5 μM, 7.5 μM, 3.75 μM, 0.75 μM) and pipette 100 μL of each into a 96-well plate except for the first three standards mentioned above which require a 1:10 dilutions prior to transferring to the 96-well plate.
Harvest the remaining start solutions and what is left in each apical compartment into 1.5 ml vials. Freeze at −20° C. for future analysis.
Analyze each 96-well plate in a Tecan Spectra Fluor Plus using Magellan at 485 and 535 nm.
(§9) Cells: CaCo-2 cells passage 40-60 grown on Transwell® plates for 21-28 days
(§10) Culture Medium: DMEM supplemented with 10% fetal bovine serum, 1% NEAA, 1% Penn/Strep
(§11) Buffers: Hank's Balanced Salt Solution (HBSS) without calcium and magnesium
(§12) Flasks: 100×20 mm Tissue culture dish Falcon.
(§13) Plates: 12 well polycarbonate Transwell® filters; 0.3 uM pore size

CaCo2 monolayers [2] = test: Trans Epithelial Electric Resistance (TEER) across CaCo2 monolayers; type: cell-based; set-up: key to Reduced TEER: + indicates an enhancement of the permeability of the tight junctions were observed; − indicates no enhancement of permeability was observed; details: for Reduced TEER: CaCo2 monolayers
Excerpt: as §1
Treatment of CaCo2 monolayers with peptide FCIGRL led to a 16-fold decrease in TEER across CaCo2 monolayers compared to vehicle alone.
as §2, §3, §4, §5, §6
Using the MilliCell®-ERS instrument (Millipore), measure and record the transepithelial electrical resistance (TEER) across each filter and record.
as §7, §8
At t=30, 60, 120 and 180 minutes, measure and record the transepithelial electrical resistance (TEER) across each filter using the MilliCell-ERS instrument.
as §9, §10, §11, §12, §13

Substance | Enhanced LY permeability (CaCo2 monolayers [1]) | Reduced TEER (CaCo2 monolayers [2]) | enhancement of Lucifer Yellow permeability through CaCo2 monolayers (CaCo2 monolayers [1]; compared to vehicle alone) | decrease in TEER across CaCo2 monolayers (CaCo2 monolayers [2]; compared to vehicle alone)
10 (E[AllylGly]IGRL-NH2; N-terminus assumed; SMILES C=CC[C@H](NC(=O)[C@@H](N)CCC(=O)O)C(=O)N[C@H](C(=O)NCC(=O)N[C@@H](CCCNC(=N)N)C(=O)N[C@@H](CC(C)C)C(N)=O)[C@@H](C)CC) [compound 10] | − | − |  | 
8 (S[AllylGly]IGRL-NH2; N-terminus assumed; SMILES C=CC[C@H](NC(=O)[C@@H](N)CO)C(=O)N[C@H](C(=O)NCC(=O)N[C@@H](CCCNC(=N)N)C(=O)N[C@@H](CC(C)C)C(N)=O)[C@@H](C)CC) [compound 8] | − | − |  | 
35 (F[AllylGly]RGRL-NH2; N-terminus assumed; SMILES C=CC[C@H](NC(=O)[C@@H](N)Cc1ccccc1)C(=O)N[C@@H](CCCNC(=N)N)C(=O)NCC(=O)N[C@@H](CCCNC(=N)N)C(=O)N[C@@H](CC(C)C)C(N)=O) [compound 35] | + | + |  | 
23 (F[AllylGly]FGRL-NH2; N-terminus assumed; SMILES C=CC[C@H](NC(=O)[C@@H](N)Cc1ccccc1)C(=O)N[C@@H](Cc1ccccc1)C(=O)NCC(=O)N[C@@H](CCCNC(=N)N)C(=O)N[C@@H](CC(C)C)C(N)=O) [compound 23] | + | + |  | 
43 (F[AllylGly]IPRL-NH2; N-terminus assumed; SMILES C=CC[C@H](NC(=O)[C@@H](N)Cc1ccccc1)C(=O)N[C@H](C(=O)N1CCC[C@H]1C(=O)N[C@@H](CCCNC(=N)N)C(=O)N[C@@H](CC(C)C)C(N)=O)[C@@H](C)CC) [compound 43] | − | − |  | 
47 (F[AllylGly]IERL-NH2; N-terminus assumed; SMILES C=CC[C@H](NC(=O)[C@@H](N)Cc1ccccc1)C(=O)N[C@H](C(=O)N[C@@H](CCC(=O)O)C(=O)N[C@@H](CCCNC(=N)N)C(=O)N[C@@H](CC(C)C)C(N)=O)[C@@H](C)CC) [compound 47] | + | + |  | 
6 (Q[AllylGly]IGRL-NH2; N-terminus assumed; SMILES C=CC[C@H](NC(=O)[C@@H](N)CCC(N)=O)C(=O)N[C@H](C(=O)NCC(=O)N[C@@H](CCCNC(=N)N)C(=O)N[C@@H](CC(C)C)C(N)=O)[C@@H](C)CC) [compound 6] | − | − |  | 
FCIGRL [SEQ ID NO: 1, Phe−Cys−Ile−Gly−Arg−Leu, reference compound] |  |  | 51 fold | 16 fold
89 (FXIGRP-NH2; not fully specified (residue 2); printed as Phe−Allylaly−Ile−Gly−Arg−Pro−NH2) [compound 89] | − | − |  | 
1 (FCIGRL; Peptide tight junction agonist) [compound 1] | + | + |  | 
58 (F[AllylGly]IGQL-NH2; N-terminus assumed; SMILES C=CC[C@H](NC(=O)[C@@H](N)Cc1ccccc1)C(=O)N[C@H](C(=O)NCC(=O)N[C@@H](CCC(N)=O)C(=O)N[C@@H](CC(C)C)C(N)=O)[C@@H](C)CC) [compound 58] | − | − |  | 
20 (R[AllylGly]IGRL-NH2; N-terminus assumed; SMILES C=CC[C@H](NC(=O)[C@@H](N)CCCNC(=N)N)C(=O)N[C@H](C(=O)NCC(=O)N[C@@H](CCCNC(=N)N)C(=O)N[C@@H](CC(C)C)C(N)=O)[C@@H](C)CC) [compound 20] | + | − |  | 
73 (F[AllylGly]IGRH-NH2; N-terminus assumed; SMILES C=CC[C@H](NC(=O)[C@@H](N)Cc1ccccc1)C(=O)N[C@H](C(=O)NCC(=O)N[C@@H](CCCNC(=N)N)C(=O)N[C@@H](Cc1c[nH]cn1)C(N)=O)[C@@H](C)CC) [compound 73] | + | + |  | 
77 (F[AllylGly]IGRA-NH2; N-terminus assumed; SMILES C=CC[C@H](NC(=O)[C@@H](N)Cc1ccccc1)C(=O)N[C@H](C(=O)NCC(=O)N[C@@H](CCCNC(=N)N)C(=O)N[C@@H](C)C(N)=O)[C@@H](C)CC) [compound 77] | + | − |  | 
27 (F[AllylGly]FGRL-NH2; N-terminus assumed; SMILES C=CC[C@H](NC(=O)[C@@H](N)Cc1ccccc1)C(=O)N[C@@H](Cc1ccccc1)C(=O)NCC(=O)N[C@@H](CCCNC(=N)N)C(=O)N[C@@H](CC(C)C)C(N)=O) [compound 27] | + | + |  | 
49 (F[AllylGly]IFRL-NH2; N-terminus assumed; SMILES C=CC[C@H](NC(=O)[C@@H](N)Cc1ccccc1)C(=O)N[C@H](C(=O)N[C@@H](Cc1ccccc1)C(=O)N[C@@H](CCCNC(=N)N)C(=O)N[C@@H](CC(C)C)C(N)=O)[C@@H](C)CC) [compound 49] | + | + |  | 
90 (F[AllylGly]IGRV-NH2; N-terminus assumed; SMILES C=CC[C@H](NC(=O)[C@@H](N)Cc1ccccc1)C(=O)N[C@H](C(=O)NCC(=O)N[C@@H](CCCNC(=N)N)C(=O)N[C@H](C(N)=O)C(C)C)[C@@H](C)CC) [compound 90] | + | + |  | 
76 (F[AllylGly]IGRF-NH2; N-terminus assumed; SMILES C=CC[C@H](NC(=O)[C@@H](N)Cc1ccccc1)C(=O)N[C@H](C(=O)NCC(=O)N[C@@H](CCCNC(=N)N)C(=O)N[C@@H](Cc1ccccc1)C(N)=O)[C@@H](C)CC) [compound 76] | + | + |  | 
24 (F[AllylGly]TGRL-NH2; N-terminus assumed; SMILES C=CC[C@H](NC(=O)[C@@H](N)Cc1ccccc1)C(=O)N[C@H](C(=O)NCC(=O)N[C@@H](CCCNC(=N)N)C(=O)N[C@@H](CC(C)C)C(N)=O)[C@@H](C)O) [compound 24] | − | − |  | 
37 (F[AllylGly]NGRL-NH2; N-terminus assumed; SMILES C=CC[C@H](NC(=O)[C@@H](N)Cc1ccccc1)C(=O)N[C@@H](CC(N)=O)C(=O)NCC(=O)N[C@@H](CCCNC(=N)N)C(=O)N[C@@H](CC(C)C)C(N)=O) [compound 37] | + | + |  | 
18 (H[AllylGly]IGRL-NH2; N-terminus assumed; SMILES C=CC[C@H](NC(=O)[C@@H](N)Cc1c[nH]cn1)C(=O)N[C@H](C(=O)NCC(=O)N[C@@H](CCCNC(=N)N)C(=O)N[C@@H](CC(C)C)C(N)=O)[C@@H](C)CC) [compound 18] | − | − |  | 
83 (F[AllylGly]IGRS-NH2; N-terminus assumed; SMILES C=CC[C@H](NC(=O)[C@@H](N)Cc1ccccc1)C(=O)N[C@H](C(=O)NCC(=O)N[C@@H](CCCNC(=N)N)C(=O)N[C@@H](CO)C(N)=O)[C@@H](C)CC) [compound 83] | − | − |  | 
33 (F[AllylGly]EGRL-NH2; N-terminus assumed; SMILES C=CC[C@H](NC(=O)[C@@H](N)Cc1ccccc1)C(=O)N[C@@H](CCC(=O)O)C(=O)NCC(=O)N[C@@H](CCCNC(=N)N)C(=O)N[C@@H](CC(C)C)C(N)=O) [compound 33] | + | + |  | 
7 (L[AllylGly]IGRL-NH2; N-terminus assumed; SMILES C=CC[C@H](NC(=O)[C@@H](N)CC(C)C)C(=O)N[C@H](C(=O)NCC(=O)N[C@@H](CCCNC(=N)N)C(=O)N[C@@H](CC(C)C)C(N)=O)[C@@H](C)CC) [compound 7] | + | − |  | 
21 (I[AllylGly]IGRL-NH2; N-terminus assumed; SMILES C=CC[C@H](NC(=O)[C@@H](N)[C@@H](C)CC)C(=O)N[C@H](C(=O)NCC(=O)N[C@@H](CCCNC(=N)N)C(=O)N[C@@H](CC(C)C)C(N)=O)[C@@H](C)CC) [compound 21] | − | − |  | 
